In patent US20230031369A1, “THERAPEUTIC INTERACTIONS OF LEUCOMETHYLTHIONINIUM” (WisTa Laboratories Ltd., priority 2019, published 2023):
“Also recorded” adds a separate entry of the source.

Legend:
[1] = tested on: glutamate release from brain synaptosomal preparations; assay: Glutamate release from brain synaptosomal preparations, L1 mice; type: in vivo, tau transgenic L1 mice
mitochondrial complex IV [2] = assay: Complex IV activity in brain mitochondria, wild-type mice; type: in vivo; settings: following LMTM treatment
Description: (§1) Wild-type and L1 mice (n=7-16 for each group) were pre-treated with rivastigmine (0.1 or 0.5 mg/kg/day) or memantine (2 or 20 mg/kg/day) or vehicle for 5 weeks by gavage. For the following 6 weeks, LMTM (5 and 15 mg/kg) or vehicle were added to this daily treatment regime, also by gavage. Animals were tested behaviourly during weeks 10 and 11 using a problem solving task in the open field water maze and then sacrificed for immunohistochemical and other tissue analyses.

[3] = ADAS-cog change after withdrawal of LMTM 8 mg/day following 18 months of treatment; type: in vivo, human
Description: Following 18 months of treatment with 8 mg/day LMTM, subjects were required to have a 1 month “washout” followed by cognitive assessment of change. The group was split according to whether they has received LMTM as an add-on to existing symptomatic therapy (AChEI, Memantine, collectively abbreviated to “Achmem”) or as a monotherapy.
The group was further analysed in terms of subjects who had received a high Cmax exposure or a low one.

[4] = tested on: SNARE complex proteins (SNAP25, syntaxin and VAMP2); assay: Immunohistochemistry of SNARE complex proteins, L1 mice; type: in vivo, tau transgenic L1 mice; settings: combination of LMTM with chronic rivastigmine pretreatment
Description: FIG. 3. Treatment effects of LMTM alone or following chronic pretreatment with rivastigmine in tau transgenic L1 mice on levels of (A) SNARE complex proteins (SNAP25, syntaxin and VAMP2) and (B) α-synuclein measured immunohistochemically as the mean value for hippocampus, visual cortex, diagonal band and septum. (*, p<0.05; ***, p<0.001; ****, p<0.0001).
as §1
(§2) Translating doses from mice to humans requires consideration of a number of factors. […] The higher dose of 15 mg/kg/day is generally required for LMTM to be fully effective in the L1 mouse model (Melis et al., 2015a). […] Tissue sectioned for immunohistochemistry was labelled with antibody and processed using Image J to determine protein expression densitometrically. Data are presented as Z-score transformations without units.

tau transgenic L1 mice = assay: Problem solving task in the open field water maze, L1 mice; type: in vivo
Description: FIG. 7. Effect of combined administration of Memantine and LMTM on problem solving deficits in female Line 1 mice, aged 5.5 months at the beginning of the study. Memantine was administered at 20 mg/kg and LMTM at 15 mg/kg. Mice were treated with vehicle or Memantine for 5 weeks prior to Memantine plus LMTM treatment for 6 weeks, with the mice being tested in the water maze task over weeks 10 and 11.
as §1

[5] = tested on: ACh levels in the hippocampus; assay: Hippocampal ACh levels with scopolamine and 100 nanomolar rivastigmine in the perfusion fluid; type: in vivo, wild type mice
Description: Under the condition of cholinesterase inhibition used in these experiments (a very small amount of a cholinesterase inhibitor, 100 nanomolar rivastigmine, added to the perfusion fluid), ACh levels in the hippocampus rise, and when they rise strongly enough, they limit additional ACh release by activating pre-synaptic muscarinic receptors of the M2/M4 subtype (so-called negative feedback receptors).
In this situation, adding scopolamine (1 μM) to the perfusion fluid blocks these presynaptic receptors and, as a consequence, ACh levels rise by 3-5 fold. The fact that LMTM is not additive with rivastigmine in these experiments supports the conclusion that LMTM has a different mechanism of action from rivastigmine. In other words, although LMTM has been described as being a weak inhibitor of cholinesterases in high concentrations, the present effects seem to be unrelated to cholinesterase inhibition, because there is no additive effect with small quantities of rivastigmine.

core tau unit of the PHF = molecular target: T1, core tau unit of the PHF (Homo sapiens, UniProt P10636); assay: Tau immunoreactivity (relative optical density) in vertical diagonal band, L1 mice; type: in vivo, tau transgenic L1 mice
T1 construct: three-repeat tau fragment encompassing residues 296-390 of the 2N4R tau isoform; expressed in transfected cells; host or cells: transgenic L1 mice (NMRI strain, Thy 1 promotor), brain sections of the vertical diagonal band
Description: FIG. 5. Treatment effects of LMTM alone or following chronic pretreatment with rivastigmine in tau transgenic L1 mice compared with vehicle-treated wild-type mice on levels of tau immunoreactivity (relative optical density) (A) and neurons immunoreactive for choline acetyltransferase (B) in vertical diagonal band. (*, p<0.05; **, p<0.01; ***, p<0.001).
as §1, §2

mitochondrial complex IV [6] = assay: Complex IV activity relative to citrate synthetase activity in brain mitochondria, L1 mice; type: in vivo, tau transgenic L1 mice
Description: as §1

[7] = tested on: acetylcholine (ACh) levels in hippocampus; assay: Hippocampal ACh levels by microdialysis and HPLC, wild-type mice; type: in vivo; settings: LMTM after prior treatment with rivastigmine
Description: (§3) For measurement of acetylcholine (ACh) levels in hippocampus, animals (wild-type or L1) were treated with LMTM (5 mg/kg/day for 2 weeks) after prior treatment for 2 weeks with or without rivastigmine (0.5 mg/kg/day). Rivastigmine was administered subcutaneously with an Alzet minipump whereas LMTM was administered by oral gavage. Levels of ACh were measured in hippocampus using an implanted microdialysis probe and HPLC analysis of the extracellular fluid.

[8] = tested on: acetylcholine (ACh) levels in hippocampus; assay: Hippocampal ACh levels by microdialysis and HPLC, L1 mice; type: in vivo, tau transgenic L1 mice
Description: as §3

[9] = 8 mg/day dose; split at Cmax threshold of […]; from WO2020/020751; cited from earlier work
wild-type mice = assay: Problem solving task in the open field water maze, wild-type mice; type: in vivo; settings: LMTM
Description: as §1

pathological tau = settings: in vivo (Congdon et al., 2012); cited from earlier work
cholinesterase = settings: reported (Pfaffendorf et al., 1997; Deiana et al., 2009); cited from earlier work
electron transfer chain = settings: acting as a supplementary electron carrier in the electron transfer chain; cited from earlier work
[10] = LMTM preceded by chronic rivastigmine

T1 sequence (P10636 613-707): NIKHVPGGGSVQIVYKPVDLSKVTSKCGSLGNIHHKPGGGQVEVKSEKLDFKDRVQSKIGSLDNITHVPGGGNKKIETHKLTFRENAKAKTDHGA

CN(C)c1ccc2c(c1)Sc1cc(N(C)C)ccc1N2 [LMTM, Leuco-methylthioninium bis(hydromethanesulfonate)]
glutamate release from brain synaptosomal preparations ([1]; LMTM alone): increased; also recorded: significant increases; also recorded: restoration of normal glutamate release
glutamate release from brain synaptosomal preparations [1, 10]: None of these effects were seen
complex IV activity (mitochondrial complex IV [2]): did not show any increase; also recorded: no effect
ADAS-cog change following LMTM withdrawal ([3]; 18 month LMTM 8 mg/day as add on to symptomatic therapy (AChEI, Memantine), high exposure (Cmax) group, p-value=0.0021): −0.98
ADAS-cog change following LMTM withdrawal ([3]; 18 month LMTM 8 mg/day as add on to symptomatic therapy (AChEI, Memantine), lower exposure group, p-value=0.0855): 0.51
ADAS-cog change following LMTM withdrawal ([3]; 18 month LMTM 8 mg/day monotherapy, high exposure (Cmax) group, p-value=0.1651): 0.73
ADAS-cog change following LMTM withdrawal ([3]; 18 month LMTM 8 mg/day monotherapy, lower exposure group, p-value=0.0011): 2.29
SNARE complex proteins [4]: levels below those seen in the absence of LMTM treatment
behavioural changes (spatial learning) (tau transgenic L1 mice; LMTM alone): reversed deficits; also recorded: significant increases
behavioural changes (tau transgenic L1 mice; [10]): None of these effects were seen
ACh levels ([5]; wild type mice, scopolamine experiments, combination of LMTM with rivastigmine): inhibitory; also recorded: not additive
increase in ACh levels ([5]; wild type mice, scopolamine used to increase ACh levels, LMTM alone): less than that seen with rivastigmine alone
immunoreactivity against the core tau unit of the PHF measured by optical density (core tau unit of the PHF; LMTM after prior chronic treatment with rivastigmine): persist
immunoreactivity against the core tau unit of the PHF measured by optical density (core tau unit of the PHF; LMTM alone): reduced
mitochondrial complex IV activity (mitochondrial complex IV [6]; LMTM alone): increased; also recorded: significant increases; also recorded: significant enhancement; also recorded: strong effect
mitochondrial complex IV activity (mitochondrial complex IV [6]; [10]): None of these effects were seen; also recorded: eliminated this effect
reduction in basal ACh levels in hippocampus [7]: 30%
ACh release in the hippocampus ([8]; LMTM alone): increased; also recorded: significant increases
ACh release in the hippocampus [8, 10]: None of these effects were seen
treatment difference in high and low Cmax patients [9]: −3.4 ADAS-cog units
spatial recognition memory (wild-type mice): not associated with improvement

CN1[C@@H]2C[C@@H](OC(=O)[C@H](CO)c3ccccc3)C[C@H]1[C@@H]1O[C@@H]12 [scopolamine, reference compound]
rise in ACh levels ([5]; scopolamine 1 μM added to the perfusion fluid containing 100 nanomolar rivastigmine): 3-5 fold

CN(C)c1ccc2nc3ccc(=[N+](C)C)cc-3sc2c1 [MT, Methylthioninium]
concentration range increasing clearance of pathological tau via enhancement of autophagy (pathological tau): 10-20 nM
cholinesterase inhibition (cholinesterase): weak cholinesterase inhibitor
concentrations at which mitochondrial activity is enhanced (electron transfer chain): 10 to 100 nM
